# Assay results from patent publication US20090069623A1, “METHODS AND COMPOSITIONS FOR TREATMENT OR PREVENTION OF RADIATION-INDUCED FIBROSIS” (Virginia Commonwealth University Intellectual Property …, priority 2007, published 2009).
# How the values were obtained:
# Type in all cases: cell-based, human
# CTGF, fibronectin [1] = assay: Western blot of irradiated HFL-1 cells treated with HMG-CoA inhibitors; details: 5 Gy, three days, FIG. 8C; for amount of CTGF detected in the cell lysate (CL): HMG-CoA inhibitor pretreatment 6 hours
# Procedure: For statin treatment experiments, cells were grown overnight in 35 mm plates (6-well plates were also used in some studies) to form a 75-80% confluent monolayer. The cells were then washed with PBS, and the media was changed to SFM (800 μL).
# (§1) Harvesting Culture Media and Cell Lystates. For analysis of extracellular CTGF, fibronectin, and α-tubulin, cell culture media was collected, centrifuged to remove cellular debris, aliquoted, and frozen at −70° C. until ready for use. For analysis of intracellular CTGF, fibronectin, and α-tubulin, cell lysates were harvested using 200 μL of HBSST lysis buffer (HBSS containing 1 mM MgSO4, 1 mM CaCl2, 4 mM NaHCO3, 0.5% Triton X-100, protease inhibitor cocktail). Cellular debris was removed by centrifugation.
# Western blot analysis of HFL-1 whole cell proteins. […] Primary antibodies for CTGF and fibronectin were diluted at 1:600 and were incubated at 4° C. overnight with shaking. Primary antibodies for α-tubulin were diluted at 1:4,000 and were incubated at 4° C. overnight with shaking. Corresponding secondary antibodies were diluted at 1:6,000 and were incubated at room temperature for 1 hour with shaking. After washing the blot, the antibodies were detected by the enhanced chemiluminescence method (PerkinElmer Life Sciences Inc.).
# Cells were harvested, and cell lysates were separated by SDS-PAGE. The separated proteins were then transferred to nitrocellulose, and Western immunoblotting was performed with antibodies specific for CTGF, fibronectin, and α-tubulin. […] As a control for protein loading, α-tubulin expression in HFL-1 cells was also determined.
# Cells were harvested, and cell lysates were separated by SDS-PAGE. The separated proteins were then transferred to nitrocellulose, and Western immunoblotting was performed with antibodies specific for CTGF, fibronectin, and α-tubulin. FIG. 8C is a Western blot of HFL-1 cells exposed to radiation and treated with HMG-CoA inhibitors.
# [2] = test system: CTGF, fibronectin (FN), collagen type IV (Col IV) mRNA; assay: RT-PCR of mRNA expression in HFL-1 cells treated with TGF-β1; details: 0 to 25 ng/ml TGF-β1, six hour treatment, FIG. 5A
# Procedure: (§2) Cell Culture and Treatment. Normal human fetal lung fibroblasts (HFL-1) were purchased from the American Type Culture Collection (ATCC Number: CCL-153) and cultured in Ham's F12K medium (American Type Culture Collection) supplemented with 2 mM L-glutamine adjusted to contain 1.5 g/L sodium bicarbonate and 10% fetal bovine serum. Cells were maintained in humidified 5% CO2 at 37° C. Human dermal fibroblasts (HDF), derived from the dermis of normal human adult skin, were purchased from Invitrogen, Inc. and cultured in Medium-106 (Invitrogen, Inc., Catalogue No. M-106-500) containing LSGS Kit (Invitrogen, Inc., Catalogue No. S-003-K) prior to use. After reaching 75-80% confluence, the medium was changed to serum free medium (SFM) for irradiation with different dose 1Gy, 2.5Gy, 5Gy, 7.5Gy and 10 Gy by using ^137Se. Alternatively, cells were treated with 5 ng/ml TGF-β1 (Sigma-Aldrich, Inc., Catalogue No. T7039) to stimulate CTGF production. The cells were then kept for 3 days in humidified 5% CO2 at 37° C. and subjected to Western immunoblot.^1 ^1What are the culture conditions (e.g., media) for M12 cells used in FIG. 3? […]
# Normal human fetal lung fibroblasts (HFL-1) were treated with varying concentrations of TGF-β1, ranging from 0 ng/ml to 25 ng/ml. […] FIG. 5A is an agarose gel of RT-PCR products detected in HFL-1 cells following a six (6) hour treatment with TGF-β1.
# CTGF, fibronectin [3] = assay: Western blot of HFL-1 cells treated with TGF-β1
# Procedure: Cell Culture and Treatment. Normal human fetal lung fibroblasts (HFL-1) were purchased from the American Type Culture Collection (ATCC Number: CCL-153) and cultured in Ham's F12K medium (American Type Culture Collection) supplemented with 2 mM L-glutamine adjusted to contain 1.5 g/L sodium bicarbonate and 10% fetal bovine serum. Cells were maintained in humidified 5% CO2 at 37° C. Human dermal fibroblasts (HDF), derived from the dermis of normal human adult skin, were purchased from Invitrogen, Inc. and cultured in Medium-106 (Invitrogen, Inc., Catalogue No. M-106-500) containing LSGS Kit (Invitrogen, Inc., Catalogue No. S-003-K) prior to use. After reaching 75-80% confluence, the medium was changed to serum free medium (SFM) for irradiation with different dose 1Gy, 2.5Gy, 5Gy, 7.5Gy and 10 Gy by using ^137Se. Alternatively, cells were treated with 5 ng/ml TGF-β1 (Sigma-Aldrich, Inc., Catalogue No. T7039) to stimulate CTGF production. […] 3?
# as §1
# Western blot analysis of HFL-1 whole cell proteins. The primary antibodies that selectively recognized CTGF (sc-14939) and fibronectin (sc-9068) were purchased from Santa Cruz Biotechnology, Inc., and primary antibodies that selectively recognized α-tubulin (T 9026) were purchased from Sigma. […] After washing the blot, the antibodies were detected by the enhanced chemiluminescence method (PerkinElmer Life Sciences Inc.).
# Protein expression in HFL-1 cells treated with TGF-β1 was also determined. […] As a control for protein loading, α-tubulin expression in HFL-1 cells was also determined.
# [4] = test system: CTGF, fibronectin (FN), collagen type IV (Col IV) mRNA; assay: RT-PCR of mRNA expression in HDF cells treated with TGF-β1; details: 0 to 25 ng/ml TGF-β1, FIG. 9A
# Procedure: as §2
# Human dermal fibroblasts (HDF) were treated with varying concentrations of TGF-β1, ranging from 0 ng/ml to 25 ng/ml, […]. […] FIG. 9A is an agarose gel of RT-PCR products detected in HDF cells following a six (6) hour treatment with TGF-β1.
# CTGF, fibronectin [5] = assay: Western blot of HDF cells treated with TGF-β1; details: three days after TGF-β1, FIG. 9B
# Procedure: Cell Culture and Treatment. Normal human fetal lung fibroblasts (HFL-1) were purchased from the American Type Culture Collection (ATCC Number: CCL-153) and cultured in Ham's F12K medium (American Type Culture Collection) supplemented with 2 mM L-glutamine adjusted to contain 1.5 g/L sodium bicarbonate and 10% fetal bovine serum. Cells were maintained in humidified 5% CO2 at 37° C. Human dermal fibroblasts (HDF), derived from the dermis of normal human adult skin, were purchased from Invitrogen, Inc. and cultured in Medium-106 (Invitrogen, Inc., Catalogue No. M-106-500) containing LSGS Kit (Invitrogen, Inc., Catalogue No. S-003-K) prior to use. After reaching 75-80% confluence, the medium was changed to serum free medium (SFM) for irradiation with different dose 1Gy, 2.5Gy, 5Gy, 7.5Gy and 10 Gy by using ^137Se. […]
# Harvesting Culture Media and Cell Lystates. For analysis of extracellular CTGF, fibronectin, and α-tubulin, cell culture media was collected, centrifuged to remove cellular debris, aliquoted, and frozen at −70° C. until ready for use. […]
# Western blot analysis of HFL-1 whole cell proteins. […] After washing the blot, the antibodies were detected by the enhanced chemiluminescence method (PerkinElmer Life Sciences Inc.).
# Protein expression in HDF cells treated with TGF-β1 was also determined. […] As a control for protein loading, α-tubulin expression in HFL-1 cells was also determined.
# [6] = three days after TGF-β1, FIG. 5B
compound,measurement,setting,value
"CC[C@H](C)C(=O)O[C@H]1C[C@H](O)C=C2C=C[C@H](C)[C@H](CC[C@@H](O)C[C@@H](O)CC(=O)O)[C@H]21 [pravastatin, (βR,δR,1S,2S,6S,8S,8aR)-1,2,6,7,8,8a-hexahydro-β,δ,-6-trihydroxy-2-methyl-8-[(2S)-2-methyl-1-oxobutoxy]-1-naphthalene-heptanoic acid]",amount of CTGF detected in the cell lysate (CL),"CTGF, fibronectin [1]",decreased as the amount of HMG-CoA inhibitor increased
"TGF-β1: Cytokine used to stimulate CTGF production (Sigma-Aldrich, Inc., Catalogue No. T7039)","expression of CTGF, FN, and Col IV mRNA",[2],increased as the concentration of TGF-β1 increased
same,CTGF expression,"CTGF, fibronectin [3]; 5 ng/ml TGF-β1 for 4 days, FIG. 1",increased
same,amount of CTGF in culture medium (CM) and cell lysate (CL),"CTGF, fibronectin [3]; [6]",increased as the amount of TGF-β1 increased
same,fibronectin protein expression,"CTGF, fibronectin [3]; [6]",same increase in protein expression
same,"expression of CTGF, FN, and Col IV mRNA",[4],increased as the concentration of TGF-β1 increased
same,amount of CTGF in culture medium (CM) and cell lysate (CL),"CTGF, fibronectin [5]",increased as the amount of TGF-β1 increased
same,fibronectin protein expression,"CTGF, fibronectin [5]",same increase in protein expression
"CC[C@H](C)C(=O)O[C@H]1CCC=C2C=C[C@H](C)[C@H](CC[C@@H]3C[C@@H](O)CC(=O)O3)C21 (stereo partly drawn) [mevastatin, (2S)-2-methyl-butanoic acid(1S,7S,8S,8aR)-1,2,3,7,8,8a-hexahydro-7-methyl-8-[2-[(2R,4R)-tetrahydro-4-hydroxy-6-oxo-2H-pyran-2-yl]ethyl]-1-naphthale-nylester]",amount of CTGF detected in the cell lysate (CL),"CTGF, fibronectin [1]",decreased as the amount of HMG-CoA inhibitor increased
"(2S)-2-methyl-butanoic acid(1S,3R,7S,8S,8aR)-1,2,3,7,8,8a-hexahydro-3,7-dimethyl-8-[2-[(2R,4R)-tetrahydro-4-hydroxy-6-oxo-2H-pyran-2-yl]ethyl]-1-na-phthalenylester [mevinolin]",amount of CTGF detected in the cell lysate (CL),"CTGF, fibronectin [1]",decreased as the amount of HMG-CoA inhibitor increased
CCOP(=O)(OCC)C(=Cc1cc(C(C)(C)C)c(O)c(C(C)(C)C)c1)P(=O)(OCC)OCC [SR12813],amount of CTGF detected in the cell lysate (CL),"CTGF, fibronectin [1]",decreased as the amount of HMG-CoA inhibitor increased
same,inhibitory effects on radiation-induced CTGF relative to other HMG-CoA inhibitors,"CTGF, fibronectin [1]; pretreatment 6 hours","reduced relative to the inhibitory effects of simvastatin, pravastatin, lovastatin, mevinolin, and mevastatin"
